The record followed here is patent US6852754B1, “Biologically active linderazulene terpenes” (Harbor Branch Oceanographic Institution, Inc., priority 2004, dated 2005).

Experiment [1] has as its system PANC-1 human pancreatic cell line. Nature of the experiment: Antiproliferative MTT assay, PANC-1 cells, 72 hours exposure. In kind it is cell-based. The protocol: (§1) Compounds I and II was analyzed as to their effect on the proliferation of PANC-1 human pancreatic and P388 murine leukemia cell lines. P388 cells were obtained from Dr. R. Camalier, National Cancer Institute, Bethesda, Md., and PANC-1 cells were obtained from American Type Culture Collection, Rockville, Md. All cell lines were maintained in tissue culture medium (TCM; Roswell Park Memorial Institute RPMI 1640 supplemented with 100 U/mL penicillin, […] streptomycin, […] 1-glutamine, 18 mM HEPES, 0.05 mg/mL gentamicin (Life Technologies, Gaithersburg, Md.) and 10% fetal bovine serum) and cultured in plastic tissue culture flasks at 37° C. in humidified air containing 5% CO2. Stock cultures of P388 cells were subcultured 1:20 in fresh TCM every 2 to 3 days. Stock cultures of […] cells were subcultured 1:10 every 3 to 4 days. To assess the antiproliferative effects of agents against the cells, […] cultures (96-well tissue culture plates, Nunc, Denmark) were established at 1×10^5 cells/mL in TCM or TCM containing the test agent at 0.03-5.0 μg/mL. After 48-h exposures, P388 cells were enumerated using 3-[4,5-dimethylthiazol-2-yl]-2,5-diphenyltetrazolium bromide (MTT) as described in the literature (M. C. Alley, et al., Cancer Res. 48:589, 1988). […] The results were expressed as percent inhibition compared to the negative (no drug) control. […]

Experiment [2] concerns P388 murine leukemia cell line. Nature of the experiment: Antiproliferative MTT assay, P388 cells, 48-h exposure. The note with it: Mus musculus, read-out: P388 (IC50 μg/ml). The class given is cell-based. The protocol:
as §1
On the technique in general: Tetrazolium assays rely on reduction of a dye to a coloured formazan, in cell work by metabolically active cells.

Regarding `COC(=O)c1ccc2c(C)cc3occc3cc1-2` [11-carbomethoxylinderazulene (I), 11-carbomethoxylinderazulene], the IC50 in experiment [1] (Homo sapiens, read-out: PANC-1 (IC50 μg/ml)) was found to be 18.7 µg/mL; in experiment [2], 2.7 µg/mL.

Turning to `Cc1cc2occc2cc2c(C=O)ccc1-2` [11-formyllinderazulene (II), 11-formyllinderazulene], the “PANC-1 (IC50 μg/ml)” value in experiment [1] is reported as “No inhibition of cell”. For the same compound, the IC50 in experiment [2] stood at 15.6 µg/mL.
